pKi: −log10 of the molar value.
How the values were obtained:
RecG = molecular target: T1, RecG (Thermotoga maritima, UniProt Q9WY48); assay: Steady-state ATPase rate measurements with phosphate biosensor MDCC-PBP; format: biochemical; details: 10 µM ATP, varying inhibitor, 500 nM DNA junction (A40:B40), 20°C
T1 construct: made in house
T1 sequence (Q9WY48 1-780): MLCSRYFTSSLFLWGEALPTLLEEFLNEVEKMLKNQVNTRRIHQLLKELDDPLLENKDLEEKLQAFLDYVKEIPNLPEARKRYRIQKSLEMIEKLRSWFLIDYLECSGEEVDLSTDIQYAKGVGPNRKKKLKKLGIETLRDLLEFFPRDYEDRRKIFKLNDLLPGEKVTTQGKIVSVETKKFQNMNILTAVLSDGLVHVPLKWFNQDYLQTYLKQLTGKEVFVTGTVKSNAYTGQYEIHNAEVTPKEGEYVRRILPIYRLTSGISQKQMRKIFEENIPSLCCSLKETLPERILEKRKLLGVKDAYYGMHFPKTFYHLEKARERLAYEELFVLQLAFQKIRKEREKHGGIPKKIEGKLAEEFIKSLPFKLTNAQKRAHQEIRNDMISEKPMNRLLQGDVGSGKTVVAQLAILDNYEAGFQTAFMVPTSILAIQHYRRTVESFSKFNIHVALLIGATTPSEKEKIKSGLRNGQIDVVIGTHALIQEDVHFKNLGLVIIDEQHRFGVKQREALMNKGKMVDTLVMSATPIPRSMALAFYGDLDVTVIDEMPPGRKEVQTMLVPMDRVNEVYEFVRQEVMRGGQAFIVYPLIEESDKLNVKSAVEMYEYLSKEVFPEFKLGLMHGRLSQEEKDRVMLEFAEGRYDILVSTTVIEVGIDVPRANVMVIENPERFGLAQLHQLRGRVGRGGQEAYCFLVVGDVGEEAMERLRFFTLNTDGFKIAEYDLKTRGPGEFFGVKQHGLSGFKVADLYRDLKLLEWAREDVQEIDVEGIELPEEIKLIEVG
Source text: Steady-state measurements were made to gain an overall assessment of the reaction and the affinities of various nucleotides before investigating the individual steps in the ATPase cycle. A two-strand DNA junction, which contains two 20-bp regions of complementary and non-complementary sequences (A40:B40 Figure 1 and Table S1), was used in all these measurements. This forms a Y-shape structure and RecG translocates one single-stranded arm, but then remains bound to the end of the junction still hydrolyzing ATP [10].
All reactions with RecG and DNA were done at 20°C in a buffer containing 50 mM Tris⋅acetate (pH 8.0), 30 mM potassium acetate, 3 mM magnesium acetate and 1 mM DTT. ATPase measurements using MDCC-PBP were taken in the presence of a Pi mop, as described above. Steady-state ATPase measurements were taken in a solution (60 µl) at 20°C, containing 10 nM RecG, 500 nM DNA junction (A40∶B40, see Table S1) and 10 µM MDCC-PBP with varying nucleotide concentrations as substrate or inhibitor [23].

RecG⋅DNA(A40:B40) [1] = molecular target: T2, RecG⋅DNA(A40:B40) (Thermotoga maritima, UniProt Q9WY48); assay: ADP dissociation kinetics by displacement with excess mantADP; format: binding
T2 construct: made in house
T2 sequence (Q9WY48 1-780): T1 sequence (Q9WY48 1-780)
Method: Figure 6 ATPase cycle measurements with unmodified nucleotides. (A) Phosphate measurements at different ATP concentrations. 0.5 µM RecG, premixed with 2.5 µM DNA (A40:B40), was then mixed in the stopped-flow apparatus with ATP at the micromolar concentrations shown, in the presence of 10 µM MDCC-PBP. (B) Best fit time courses of the Pi release, based upon a model of the ATPase cycle, as described in the text. Curves were obtained by glogal fitting the curves at different concentrations, using Global kinetic Explorer. Note that in comparison, the experimental time courses show a small transient of Pi at times <100 ms. This is likely to be due to free Pi and this behavior, overlaying a lag, has been observed previously in multi-turnover measurements. (C) ADP Release kinetics. […] The increase in fluorescence was fitted to single exponential giving the dissociation rate constant of 11.4 (±2.2) s^−1. […]
A direct measurement of ADP dissociation kinetics was possible because of its relatively tight binding to RecG, which allowed quantitative formation of the ADP complex. […] The rate constant for dissociation was determined from a single exponential fit as 11.4 (±2) s^−1 (Figure 6C). This value fits well with the model whereby the dissociation rate constant is calculated as ≥12.5 s^−1.

RecG⋅DNA(A40:B40) [2] = molecular target: T2, RecG⋅DNA(A40:B40); assay: Pi release with excess ATP, global fit to ATPase cycle model; format: biochemical; details: fixed to be consistent with K i for ADP
Method: The rate of Pi release was measured after mixing RecG⋅DNA with excess ATP, using the phosphate biosensor, in the stopped-flow apparatus (Figure 6A). […] Both phases are dependent on ATP concentration. The lag decreased, while the rate of the linear phase increased with greater concentrations of ATP. The lag is due to the steps prior to Pi release, namely ATP binding and cleavage. […] Such a burst phase would result from the relatively fast Pi release of the initial cycle before the Pi release of subsequent cycles was limited by slow ADP release.
Figure 6 ATPase cycle measurements with unmodified nucleotides. (A) Phosphate measurements at different ATP concentrations. 0.5 µM RecG, premixed with 2.5 µM DNA (A40:B40), was then mixed in the stopped-flow apparatus with ATP at the micromolar concentrations shown, in the presence of 10 µM MDCC-PBP. (B) Best fit time courses of the Pi release, based upon a model of the ATPase cycle, as described in the text. Curves were obtained by glogal fitting the curves at different concentrations, using Global kinetic Explorer. Note that in comparison, the experimental time courses show a small transient of Pi at times <100 ms. This is likely to be due to free Pi and this behavior, overlaying a lag, has been observed previously in multi-turnover measurements. (C) ADP Release kinetics. 10 µM RecG⋅DNA (A40∶B40) was pre-bound with 10 µM ADP before mixing with an excess of mantADP (20 µM): these concentrations are final in the mixing chamber. The increase in fluorescence was fitted to single exponential giving the dissociation rate constant of 11.4 (±2.2) s^−1. Rate constants were independent of mantADP concentration in the range of 20–80 µM.
A scheme of the ATPase cycle (Figure 2) was used to simulate the data to assess the individual rate constants. […] The simulated traces (Figure 6B) were obtained from a global fit to the experimental data. This was done by allowing only the rate constants that have maximum influence on the curve shapes to vary. Cleavage and Pi release were assumed to be irreversible. For the fit, Pi release was fixed at 100 s^–1, ADP release at 12.5 s^–1, as the fitting was relatively insensitive to changes in these constants. […] The resulting best fit gave rate constants for ATP binding as 0.65 (±0.02) µM^−1s^−1, dissociation of ATP as 10.0 (±0.6) s^−1, cleavage as 7.1 (±0.1) s^−1. The fit gave a cleavage rate constant similar to the value of k cat from the steady-state analysis (Table 1a). The rate constant for ADP release may be only slightly larger than that of cleavage step.
Data were fitted to theoretical equations using the stopped-flow software or Grafit. Kinetic simulations were performed using Berkeley Madonna (Version 8.3, University of California at Berkeley) and using Global Kinetic Explorer (Kintek). […]

## Nc1ncnc2c1ncn2[C@@H]1O[C@H](COP(=O)(O)OP(=O)(O)O)[C@@H](O)[C@H]1O [ADP]
RecG
  pKi: 5.14
RecG⋅DNA(A40:B40) [1]; 10 µM RecG⋅DNA pre-bound with 10 µM ADP, mixed with 20 µM mantADP
  ADP dissociation rate constant: 11.4 (±2.2) s^−1
RecG⋅DNA(A40:B40) [1]; from dissociation rate constant and K i
  estimated ADP association rate constant: 1.6e+06 M⁻¹ s⁻¹
RecG⋅DNA(A40:B40) [2]
  ADP binding rate constant in the model: 1.7 µM^−1s^–1
